Source: article PMC12241370, “Anti-biofilm peptides can rescue fluconazole and amphotericin B efficacies against Candida albicans” (Scientific Reports, 2025)

Key:
[1] = system: C. albicans laboratory strain and clinical isolates; assay: Biofilm formation, crystal violet assay; format: cell-based, Candida albicans
Method: In order to evaluate the antifungal effects of the Pom-1 derivatives combined with amphotericin B or fluconazole on biofilm formation, a crystal violet assay was performed[84],[85]. For this, 2.5 × 10^4 yeast cells/mL were incubated in 200 µL of RPMI-1640 medium supplemented with amphotericin B, fluconazole and Pom-1 to Pom-1 F in flat-bottomed polystyrene microtiter plates with 96 wells for 24 h at 37 °C without agitation. Subsequently, the planktonic phase was removed, the remaining cells attached to the wells were washed twice with 200 µL of demineralized water and exposed to 200 µL of 0.1% (w/v) crystal violet solution for 15 min. Afterwards, the solution was removed and the cells were washed again twice with 200 µL of demineralized water and the plates were left to dry for 24 h at 25 °C. To dissolve the stain, 200 µL of 30% acetic acid was added and transferred to a new plate after 15 min. […] By comparing the resulting data against the untreated controls, the efficacy of the agents could be assessed.

[2] = system: C. albicans laboratory strain and clinical isolates; assay: Resazurin reduction viability assay of planktonic cells; format: cell-based, Candida albicans; details: for strains whose viability could not be reduced to zero: 1x ED: 2 µg/mL amphotericin B, 8 µg/mL fluconazole
Method: KG, Nümbrecht, Germany) at 37 °C with shaking at 900 rpm on an Eppendorf shaker. The quantification of viable yeast cells was carried out using a Resazurin-Reduction-Assay[86]. Accordingly, the cells were exposed to 20 µL of a 0.15 mg/mL resazurin solution for 2 h and subsequently the amount of converted resorufin was determined with fluorescence measurements at an excitation wavelength of 535 and an emission of 595 nm with a Tecan infinite F200 microplate reader (Tecan Group Ltd., Männedorf, Switzerland).

[3] = system: C. albicans clinical isolate 23; assay: Resazurin viability assay of clinical isolate 23; format: cell-based, Candida albicans; details: antifungal alone at 1x ED
Method: The viability of C. albicans cells was assessed following the guidelines of the Clinical and Laboratory Standards Institute (M27-A3)[86]. Accordingly, 2.5 × 10^4 yeast cells/mL were cultured in 200 µL of RPMI-1640 medium in the presence of peptide (Pom-1 to Pom-1 F) and amphotericin B or fluconazole in different concentrations (0.1x ED/MBIC and 0.5x ED/MBIC) in flat-bottomed polystyrene microtiter plates with 96 wells (Sarstedt AG and Co. KG, Nümbrecht, Germany) at 37 °C with shaking at 900 rpm on an Eppendorf shaker. The quantification of viable yeast cells was carried out using a Resazurin-Reduction-Assay[86]. Accordingly, the cells were exposed to 20 µL of a 0.15 mg/mL resazurin solution for 2 h and subsequently the amount of converted resorufin was determined with fluorescence measurements at an excitation wavelength of 535 and an emission of 595 nm with a Tecan infinite F200 microplate reader (Tecan Group Ltd., Männedorf, Switzerland).
Figure S4. Inherent resilience to aggregation by isolate 23 and marginal reduction of viability by further raised concentrations of antifungal and peptide combinations. (A) Microscopic analysis using a Leica DMi8 coded (Leica Microsystems CMS GmbH, Wetzlar, Germany) microscope of C. albicans laboratory strain and clinical isolate 23 with and without treatment with Pom-1. The pictures were taken after an incubation time of 2 h. […]

[4] = system: C. albicans reference strain; assay: Permeabilization assay with fluorescent dyes of increasing size; format: cell-based, Candida albicans; details: FITC, propidium iodide, ATTO 488 alkyne, rhodamine phalloidin; Pom-1 or Cm-p5 at 2.5 µg/mL and 10 µg/mL, 2 h, 37 °C; Triton X-100 0.2% (w/v) solution, last 10 min; fluorescence; triplicate
Method: For this, 2.5 × 10^4 cells/mL of the C. albicans reference strain were incubated in 200 µL of RPMI-1640 medium supplemented with either Pom-1 or Cm-p5 at final concentrations of 2.5 µg/mL and 10 µg/mL and incubated for 2 h at 37 °C. For the positive control, 100 µL of a 0.2% (w/v) solution of Triton X-100 was added 10 min prior to the end of the 2 h incubation time and for the negative control, no agent was added (untreated). After incubation, the tubes were centrifuged at 11,000 ×g and the supernatant was discarded. Afterwards, the cells were washed with once with PBS and after addition of 5 µL dye and 195 µL PBS (final concentration of dye: 5 µL/mL) the cell suspension was centrifuged at 11,000 ×g for 2 min. […] Subsequently the yeast cells were washed 3x with PBS, resuspended in 200 µL of PBS and pipetted into flat-bottomed polystyrene microtiter plates with 96 wells (Sarstedt AG and Co. KG, Nümbrecht, Germany) and fluorescence measurements were conducted at an excitation wavelength of 498 nm (FITC), 535 nm (propidium iodide), 500 nm (Atto488), and 540 nm (rhodamine phalloidin) and an emission of 517 nm (FITC), 617 nm (propidium iodide), 520 nm (Atto488), 565 nm (rhodamine phalloidin) with a Tecan infinite F200 microplate reader (Tecan Group Ltd., Männedorf, Switzerland). […]

A549 cells = assay: Resazurin viability assay for cell culture (A549); format: cell-based, human; details: detergent cell lysis control
Method: (§1) Adenocarcinomic human alveolar basal epithelial cells (A549) (purchased from the ATCC, Manassas, VA, USA, CRM-CCL-185)[67] and human dermal fibroblasts (HDFs) (purchased from tebu-bio GmbH, Offenbach, Germany) were used[68] for the experiments. Cultivation was conducted in DMEM with FBS (10% (w/v), 15% (w/v)), MEM NEAAs (1% (w/v)), and penicillin–streptomycin (100 U/mL, 1% (w/v)) at 37 °C in an incubator containing 5% CO2. To detect the viability of human cells, a resazurin reduction assay was performed. For this, 2 × 10^4 cells per well of a 96-well plate were incubated in 200 µL DMEM with additives at 37 °C and 5% CO2. After removing the medium, 100 µL of the medium and 100 µL of a peptide/antifungal solution (2.5 µg/mL, 25 µg/mL) were added. After incubation for 24 h at 37 °C and 5% CO2, 20 µL of a resazurin solution (0.15 mg/mL) were added into each well, and the cells were incubated again for 24 h at 37 °C and 5% CO2. Fluorescence measurement (excitation wavelength—535 nm, emission wavelength—595 nm) of the converted resorufin was then performed using a Tecan Infinite F200 microplate reader (Tecan Group Ltd., Männedorf, Switzerland).

[5] = system: human dermal fibroblasts (HDF); assay: Resazurin viability assay for cell culture (HDF); format: cell-based; details: detergent cell lysis control
Method: as §1

Compound | strains with complete biofilm inhibition (death count) ([1]; amphotericin B only, 0.1x ED) | strains with complete biofilm inhibition (death count) ([1]; antifungal only, 0.5x ED) | strains with complete biofilm inhibition ([1]; antifungal only, 0.5x ED, 21 strains) [%] | strains with complete inhibition of biofilms ([1]; antifungal only, 1x ED (2 µg/mL), 21 strains) [%] | strains with complete inhibition of biofilms (death count) ([1]; antifungal only, 1x ED (2 µg/mL), crystal violet, 24 h, 37 °C, triplicate) | strains whose viability could not be reduced to zero [2] | strains killed completely ([2]; amphotericin B only, 0.5x ED, planktonic cells, 28 strains) [%] | isolates against which fully active (zero viability) ([2]; amphotericin B only, 1x ED (2 µg/mL), planktonic cells, 28 strains) [%] | isolates against which fully active (death count) ([2]; amphotericin B only, 1x ED (2 µg/mL), planktonic cells, resazurin, triplicate) | effect on isolate 23 [3] | permeabilization of C. albicans cells for fluorescent dyes [4] | cell viability of A549 cells (A549 cells) | cell viability of HDF cells [5] | isolates with viability reduction (death count) ([2]; fluconazole only, 0.1x ED) | ratio of completely killed C. albicans isolates ([2]; fluconazole only, 1x ED (8 µg/mL), 28 strains) [%]
C[C@@H]1[C@H](O)[C@@H](C)/C=C/C=C/C=C/C=C/C=C/C=C/C=C/[C@H](O[C@@H]2O[C@H](C)[C@@H](O)[C@H](N)[C@@H]2O)C[C@@H]2O[C@](O)(C[C@@H](O)C[C@@H](O)[C@H](O)CC[C@@H](O)C[C@@H](O)CC(=O)O[C@H]1C)C[C@H](O)[C@H]2C(=O)O [amphotericin B] | totally failed | 2 of 21 | 9.5 | 52 | 11 of 21 | 21 of 28 strains | 7 | 25 | 7 of 28 | unaffected |  |  |  |  | 
Triton X-100 |  |  |  |  |  |  |  |  |  |  | permeabilized Candida cells for all dyes | zero | zero |  | 
OC(Cn1cncn1)(Cn1cncn1)c1ccc(F)cc1F [fluconazole] |  |  |  |  |  | 12 of 28 strains |  |  |  | unaffected |  |  |  | 3 isolates of 28 | 57
